These results are taken from patent publication US11905281B2 (Amgen Inc., priority 2017, dated 2024).

Structures are written as SMILES.

The test system of test [1] is Phosphorylation of ERK1/2 in A549 cells. The test is described as follows: Phospho-ERK1/2 MSD Assay, A549 (Table 15 conditions: 4 hours compound treatment). In kind it is cell-based. Conditions: Homo sapiens, A549, 4 h, EGF stimulation, read-out: p-ERK IC50 (A549). As to the method: (§1) For compounds in Table 15, the following assay conditions were employed:
(§2) Phospho-ERK1/2 MSD Assay: MIA PaCa-2 (ATCC® CRL-1420™) and A549 (ATCC® CCL-185™) cells were cultured in RPMI 1640 Medium (ThermoFisher Scientific 11875093) containing 10% fetal bovine serum (ThermoFisher Scientific 16000044) and 1× penicillin-streptomycin-glutamine (ThermoFisher Scientific 10378016). Sixteen hours prior to compound treatment, MIA PaCa-2 or A549 cells were seeded in 96-well cell culture plates at a density of 25,000 cells/well and incubated at 37° C., 5% CO2. A compound dose-response titration was diluted in growth media, added to appropriate wells of a cell culture plate, and then incubated at 37° C., 5% CO2 for 4 hours. Following compound treatment, cells were stimulated with 10 ng/mL EGF (Roche 11376454001) for 10 min, washed with ice-cold Dulbecco's phosphate-buffered saline, no Ca^2+ or Mg^2+ (ThermoFisher Scientific 14190144), and then lysed in RIP A buffer (50 mM Tris-HCl pH 7.5, 1% Igepal, 0.5% sodium deoxycholate, 150 mM NaCl, and 0.5% sodium dodecyl sulfate) containing protease inhibitors (Roche 4693132001) and phosphatase inhibitors (Roche 4906837001). Cell lysates were stored frozen at −80° C. overnight. Phosphorylation of ERK1/2 in compound-treated lysates was assayed using Phospho-ERK1/2 Whole Cell Lysate kits (Meso Scale Discovery K151DWD) according to the manufacturer's protocol. Assay plates were read on a Meso Scale Discovery Sector Imager 6000, and data were analyzed using a 4-parameter logistic model to calculate IC50 values.

In test [2] the target is T1, GDP-bound KRAS protein (aa 1-169), containing both G12C and C118A amino acid substitutions (Homo sapiens, UniProt P01116, C118A/G12C). The test is described as follows: Coupled Nucleotide Exchange Assay (Table 15 conditions: 2 hours pre-incubation). Type of test: biochemical. Conditions: 2 hours compound pre-incubation (Table 15 conditions). As to the method:
as §1
Following compound pre-incubation, purified SOS protein (aa 564-1049) and GTP (Roche 10106399001) were added to the assay wells and incubated for an additional hour. […] The assay plates were then read on a PerkinElmer EnVision Multilabel Reader, using AlphaScreen® technology, and data were analyzed using a 4-parameter logistic model to calculate IC50 values.

The test system of test [3] is Phosphorylation of ERK1/2 in MIA PaCa-2 cells. The test is described as follows: Phospho-ERK1/2 MSD Assay, MIA PaCa-2 (Table 15 conditions: 4 hours compound treatment). Type of test: cell-based. Conditions: EGF stimulation, read-out: p-ERK IC50 (MIA PaCa-2). As to the method:
as §1, §2

The test system is the same in test [4]. The test is described as follows: Phospho-ERK1/2 MSD Assay, MIA PaCa-2 (Table 16 conditions: 2 hours compound treatment). To be noted: 10 ng/mL EGF for 10 min, read-out: p-ERK IC50 (MIA PaCa-2). In kind it is cell-based. As to the method: (§3) For compounds in Table 16, the following assay conditions were employed:
Sixteen hours prior to compound treatment, MIA PaCa-2 or A549 cells were seeded in 96-well cell culture plates at a density of 25,000 cells/well and incubated at 37° C., 5% CO2. A compound dose-response titration was diluted in growth media, added to appropriate wells of a cell culture plate, and then incubated at 37° C., 5% CO2 for 2 hours. […] Phosphorylation of ERK1/2 in compound-treated lysates was assayed using Phospho-ERK1/2 Whole Cell Lysate kits (Meso Scale Discovery K151DWD) according to the manufacturer's protocol. Assay plates were read on a Meso Scale Discovery Sector Imager 6000, and data were analyzed using a 4-parameter logistic model to calculate IC50 values.

For test [5], the target named is T1, GDP-bound KRAS protein (aa 1-169), containing both G12C and C118A amino acid substitutions. Kind of test: Coupled Nucleotide Exchange Assay (Table 16 conditions: 5 min pre-incubation). In kind it is biochemical. Conditions: 5 min compound pre-incubation; SOS-mediated nucleotide exchange, AlphaScreen. The procedure: as §3
The assay plates were then read on a PerkinElmer EnVision Multilabel Reader, using AlphaScreen® technology, and data were analyzed using a 4-parameter logistic model to calculate IC50 values.

The subject of test [6] is Phosphorylation of ERK1/2 in A549 cells. Kind of test: Phospho-ERK1/2 MSD Assay, A549 (Table 16 conditions: 2 hours compound treatment). In kind it is cell-based. To be noted: Homo sapiens, 10 ng/mL EGF for 10 min, read-out: p-ERK IC50 (A549). The procedure: as §3
as §2, with “for 2” for “for 4”, “4906837001). […]” for “4906837001). Cell lysates were stored frozen at −80° C. overnight. Phosphorylation of ERK1/2 in compound-treated lysates was assayed using Phospho-ERK1/2 Whole Cell Lysate kits (Meso Scale Discovery K151DWD) according to the manufacturer's protocol.”

T1 sequence (P01116 1-169 isoform P01116-2 G12C/C118A): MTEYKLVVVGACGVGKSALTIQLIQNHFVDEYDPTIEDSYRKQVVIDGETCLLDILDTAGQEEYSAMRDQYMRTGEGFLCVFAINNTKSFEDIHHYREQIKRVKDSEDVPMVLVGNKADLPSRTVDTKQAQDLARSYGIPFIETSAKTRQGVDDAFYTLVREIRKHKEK

Turning to `C=CC(=O)N1CCN(c2snc3c(F)c(-c4cc(O)cc5ccccc45)c(Cl)cc23)CC1CO` (racemic) [Example 1-16, 1-(4-(5-chloro-7-fluoro-6-(3-hydroxy-1-naphthalenyl)-2,1-benzothiazol-3-yl)-2-(hydroxymethyl)-1-piperazinyl)-2-propen-1-one], the IC50 in test [1] was more than 100 µM. For the same compound, the “Coupled exchange IC50” value in test [2] came out at 0.492 µM.

As for `C=CC(=O)N1CCN(c2snc3c(F)c(-c4c(C)ccc5[nH]ncc45)c(Cl)cc23)C(C(F)F)C1` (racemic) [Example 2-8, 1-(4-(5-chloro-7-fluoro-6-(5-methyl-1H-indazol-4-yl)-2,1-benzothiazol-3-yl)-3-(difluoromethyl)-1-piperazinyl)-2-propen-1-one], the IC50 in test [1] was more than 100 µM. Besides, the “Coupled exchange IC50” value in test [2] was 0.361 µM.

For the compound `C=CC(=O)N1CCN(c2snc3c(F)c(-c4cc(O)cc5ccccc45)c(Cl)cc23)C(C(C)C)C1` (racemic) [Example 2-10, 1-(4-(5-chloro-7-fluoro-6-(3-hydroxy-1-naphthalenyl)-2,1-benzothiazol-3-yl)-3-(2-propanyl)-1-piperazinyl)-2-propen-1-one], the IC50 in test [3] (Homo sapiens, MIA PaCa-2, 4 h) was 3.07 µM; in test [1] it was more than 100 µM. The “Coupled exchange IC50” value in test [2] worked out at 1.73 µM.

Take `C=CC(=O)N1CCN(c2snc3c(F)c(-c4cc(O)cc5ccccc45)c(Cl)cc23)C(CF)C1` (racemic) [Example 7-2, 1-(4-(5-chloro-7-fluoro-6-(3-hydroxy-1-naphthalenyl)-2,1-benzothiazol-3-yl)-3-(fluoromethyl)-1-piperazinyl)-2-propen-1-one]: the IC50 in test [1] was more than 100 µM. Also, in test [2], the “Coupled exchange IC50” value worked out at 0.180 µM.

For the compound `C=CC(=O)N1CCN(c2nc(=O)n(-c3ccncc3C3CC3)c3cc(-c4c(O)cccc4F)c(Cl)cc23)[C@@H](C)C1` (single isomer, unassigned) [Example 9-7-2], the IC50 in test [3] was determined as 0.232 µM.

In the case of `C=CC(=O)N1CCN(c2nnc(-c3c(C)ccc4[nH]ncc34)c3cc(-c4c(O)cccc4F)c(Cl)cc23)CC1` [Example 10-12, 1-(4-(7-chloro-6-(2-fluoro-6-hydroxyphenyl)-4-(5-methyl-1H-indazol-4-yl)-1-phthalazinyl)-1-piperazinyl)-2-propen-1-one], in test [3] (Homo sapiens, MIA PaCa-2, 4 h), the IC50 amounted to 22.6 µM.

As for `C=CC(=O)N1CCN(c2nnc(-c3ccccc3C(C)C)c3cc(-c4c(O)cccc4F)c(C)nc23)CC1` [Example 27, 1-(4-(3-(2-Fluoro-6-hydroxyphenyl)-2-methyl-5-(2-(2-propanyl)phenyl)pyrido[2,3-d]pyridazin-8-yl)-1-piperazinyl)-2-propen-1-one], the “Coupled exchange IC50” value in test [2] turned out to be 1.28 µM.

Regarding `C=CC(=O)N1CCN(c2nc(=O)n(-c3c(C)cccc3C(C)C)c3nc(-c4c(O)cccc4F)c(Cl)cc23)[C@@H](C)C1` [Example 39, 6-Chloro-7-(2-fluoro-6-hydroxyphenyl)-1-(2-methyl-6-(2-propanyl)phenyl)-4-((2S)-2-methyl-4-(2-propenoyl)-1-piperazinyl)pyrido[2,3-d]pyrimidin-2(1H)-one], the IC50 is 0.029 µM in test [4] (MIA PaCa-2 cells), 0.063 µM in test [5] and more than 100 µM in test [6].

Take `C=CC(=O)N1CCN(c2nc(=O)n(-c3scnc3C(C)C)c3nc(-c4c(O)cccc4F)c(Cl)cc23)[C@@H](C)C1` [Example 48, 6-Chloro-7-(2-fluoro-6-hydroxyphenyl)-4-((2S)-2-methyl-4-(2-propenoyl)-1-piperazinyl)-1-(4-(2-propanyl)-1,3-thiazol-5-yl)pyrido[2,3-d]pyrimidin-2(1H)-one]: the IC50 is 0.063 µM in test [4] (Homo sapiens, MIA PaCa-2, MIA PaCa-2 cells); 0.081 µM in test [5]; more than 10 µM in test [6].
